# Laboratory results as given in EP4603105A1, “PHARMACEUTICAL COMPOSITION CONTAINING CYCLIC COMPOUND HAVING SELECTIVE KRAS INHIBITORY EFFECT AGAINST HRAS AND NRAS” (CHUGAI SEIYAKU KABUSHIKI KAISHA, priority 2022, dated 2024).
# Where a SMILES comes first, the peptide text is derived from it. Bridges are numbered along the chain shown (N, C = ends). [ ]: non-standard residue; d: D form. The star is where a group is joined. hPhe(3-Cl-4-CF3) = N[C@@H](CCc1ccc(C(F)(F)F)c(Cl)c1)C(=O)O; NPrPhe(4-CF3) = CCCN[C@@H](Cc1ccc(C(F)(F)F)cc1)C(=O)O; NMeGly(cPent) = CN[C@H](C(=O)O)C1CCCC1; NMeD = CN[C@@H](CC(=O)O)C(=O)O; NMeL = CN[C@@H](CC(C)C)C(=O)O; N(Me)CH2CH2OMe = COCCN(C)*; Morpholide = C1CN(*)CCO1; Ac5c = NC1(C(=O)O)CCCC1; X11 = CC1(C)CCN(*)C1; NEtG = CCNCC(=O)O; Sar = CNCC(=O)O
# Tests used:
# [1] = tested on: human lung cancer strain NCI-H441; format: cell-based
# Protocol: A test compound was dispensed into a U-bottom 384-well plate as 40 nL serially diluted dimethyl sulfoxide solutions using a liquid handler Echo (LABCYTE). […] This cell suspension was dispensed in an amount of 40 µL per well into a plate containing the test compound, and cultured at 37°C in a 5% carbon dioxide gas incubator. Four days later, 20 µL of CellTiter-Glo (registered trademark) (Promega) was added to each well and […] was measured. […]
# [2] = molecular target: GDP-bound NRAS wild-type protein (Homo sapiens, UniProt P01111); assay: Binding to NRAS by surface plasmon resonance (SPR), KD and KD ratio to KRAS
# Protocol: (§1) Surface plasmon resonance was used to analyze the binding affinity of compounds for KRAS, NRAS, and HRAS. The apparatus used was Biacore 8K, 8K+, or T200 (GE Healthcare), and the running buffer used was HBS (10 mM HEPES-NaOH, 150 mM NaCl, pH 7.4) containing 1 mM DTT, 10 mM MgCl2, 0.01% Tween 20, 10 µM GDP, and 4% DMSO.
# (§2) Biotinylated Avi-tag fusion KRAS, NRAS, and HRAS proteins were expressed in E. coli BL21 (DE3) strains, and after cells were homogenized, they were purified using Streptavidin Mutein Matrix and Superdex 75. After purification, GDP-loaded KRAS, NRAS, and HRAS proteins were immobilized on the surface of Sensor Chip CAP (Cytiva) coated with Biotin CAPture Reagent in an immobilization amount of about 100 to 300 RU. Binding of each compound was evaluated by the Single Cycle Kinetics method, and a running buffer or a compound solution was added to the RAS protein non-immobilized surface and the immobilized surface to obtain a binding response. The flow rate was set to 100 µL/min, and in the compound-adding cycle, compound solutions having different concentrations were intermittently added for 75 seconds each, starting from a low concentration. […] In the blank cycle, a running buffer was intermittently added and not the compound solution. The Biotin CAPture Reagent and RAS proteins were immobilized for each cycle, and at the end of each cycle, the sensor chip was regenerated by the regeneration solution appended to the Biotin CAPture Kit (Cytiva). Measurement was carried out at 30°C.
# (§3) The resulting sensorgram was subjected to curve fitting based on a 1:1 binding model on Biacore Insight Evaluation Software or T200 Evaluation Software, and thereby the dissociation constant KD of each compound with respect to KRAS, NRAS, and HRAS was determined. […] Blank indicates a compound from which the KD value with respect to NRAS or HRAS was not obtained.
# HRAS wild-type protein = HRAS wild-type protein (Homo sapiens, UniProt P01112); assay: Binding to HRAS by surface plasmon resonance (SPR), KD and KD ratio to KRAS
# Protocol: as §1, §2, §3
# [3] = ratio of the KD value with respect to GDP-bound NRAS wild-type protein to the KD value with respect to KRAS
# [4] = ratio of the KD value with respect to HRAS wild-type protein to the KD value with respect to KRAS
# [5] = ratio of KD with respect to GDP-bound NRAS wild-type protein to KD with respect to KRAS
# [6] = ratio of KD with respect to HRAS wild-type protein to KD with respect to KRAS
# [7] = ratio of KD value for GDP-bound NRAS wild-type protein to KD value for KRAS (SPR)
# [8] = ratio of KD value for HRAS wild-type protein to KD value for KRAS (SPR)
# [9] = ratio of KD for GDP-bound NRAS wild-type protein to KD for KRAS
# [10] = ratio of KD for HRAS wild-type protein to KD for KRAS
# Sequence of GDP-bound NRAS wild-type protein (P01111 whole entry): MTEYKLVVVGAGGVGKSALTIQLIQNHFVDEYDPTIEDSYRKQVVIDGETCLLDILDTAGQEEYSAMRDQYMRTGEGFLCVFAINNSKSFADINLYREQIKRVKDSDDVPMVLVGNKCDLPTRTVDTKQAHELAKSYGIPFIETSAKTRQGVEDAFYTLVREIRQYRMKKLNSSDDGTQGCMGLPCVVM
# Sequence of HRAS wild-type protein (P01112 whole entry): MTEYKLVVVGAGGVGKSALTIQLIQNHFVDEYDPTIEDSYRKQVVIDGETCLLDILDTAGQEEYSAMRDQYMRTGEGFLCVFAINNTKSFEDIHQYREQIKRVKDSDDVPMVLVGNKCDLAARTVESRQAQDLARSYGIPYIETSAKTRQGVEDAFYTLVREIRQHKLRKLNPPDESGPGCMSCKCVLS
Structure (SMILES),IC50 [1] [nM],HRAS /KRAS (HRAS wild-type protein; [10]),further results
CCCN1C(=O)CN(C)C(=O)CN(C)C(=O)[C@H]([C@@H](C)CC)NC(=O)[C@H](CC(C)C)N(C)C(=O)C[C@@H](C(=O)N(C)CCOC)N(C)C(=O)[C@H](C2CCCC2)N(C)C(=O)C2(CCCC2)NC(=O)[C@@H]2CCCN2C(=O)[C@H](CCc2ccc(C(F)(F)F)c(Cl)c2)NC(=O)CN(C)C(=O)[C@@H]1Cc1ccc(C(F)(F)F)cc1 [PP0391] ([NMeL]I[Sar][Sar][NPrPhe(4-CF3)][Sar][hPhe(3-Cl-4-CF3)]P[Ac5c][NMeGly(cPent)][NMeD]-{N(Me)CH2CH2OMe}; lactam N-11),1.1,,"NRAS /KRAS [2, 3]: B (a compound having 3 or more and less than 10 is denoted as B); HRAS /KRAS (HRAS wild-type protein; [4]): B (a compound having 3 or more and less than 10 is denoted as B)"
CCO[C@@H]1C[C@H]2C(=O)NC3(CCC3)C(=O)N(C)[C@@H](C3CCCC3)C(=O)N(C)[C@H](C(=O)N(C)CCOC)CC(=O)N(C)[C@@H](CC)C(=O)N[C@@H]([C@@H](C)CC)C(=O)N(C)CC(=O)N(C)[C@H]3C/C=C\CCN(C3=O)[C@@H](Cc3ccc(C(F)(F)F)cc3)C(=O)N(C)CC(=O)N[C@@H](CCc3ccc4sccc4c3)C(=O)N2C1 [PP1322],56.2,,"NRAS /KRAS [2, 5]: A (a compound having 10 or more and less than 20 is denoted as A); HRAS /KRAS (HRAS wild-type protein; [6]): A (a compound having 10 or more and less than 20 is denoted as A)"
CCO[C@@H]1C[C@H]2C(=O)NC3(CC(C)(C)C3)C(=O)N(C)[C@@H](C3CCCC3)C(=O)N(C)[C@H](C(=O)N(C)C)CC(=O)N(C)[C@@H](CC3CCC3)C(=O)N[C@@H]([C@@H](C)CC)C(=O)N(C)CC(=O)N(C)[C@H]3C/C=C\CCN(C3=O)[C@@H](Cc3ccc(C(F)(F)F)cc3)C(=O)N(C)CC(=O)N[C@@H](CCc3ccc(C(F)(F)F)c(Cl)c3)C(=O)N2C1 [PP1752],5.8,,"NRAS /KRAS [2, 7]: A (a compound having 10 or more and less than 20 is denoted as A); HRAS /KRAS (HRAS wild-type protein; [8]): A (a compound having 10 or more and less than 20 is denoted as A)"
CCCOC[C@H]1C(=O)N[C@@H]([C@@H](C)CC)C(=O)N2CCC[C@H]2C(=O)N(C)[C@H]2C/C=C\CCN(C2=O)[C@@H](Cc2ccc(C)cc2)C(=O)N(C)CC(=O)N[C@@H](CCc2ccc(C(F)(F)F)c(OC)c2)C(=O)N2C[C@H](OCC)C[C@H]2C(=O)N(C)C2(CCC2)C(=O)N(C)[C@@H](C2CCCC2)C(=O)N(C)[C@H](C(=O)N(C)C)CC(=O)N1C [PP2334],5.7,,"NRAS /KRAS [2, 3]: A (a compound having 10 or more and less than 20 is denoted as A); HRAS /KRAS (HRAS wild-type protein; [4]): B (a compound having 3 or more and less than 10 is denoted as B)"
CCO[C@@H]1C[C@H]2C(=O)NC3(CCC3)C(=O)N(C)[C@@H](C3CCCC3)C(=O)N(C)[C@H](C(=O)N(CC)CC)CC(=O)N(C)[C@@H](CC)C(=O)N[C@@H]([C@@H](C)CC)C(=O)N(C)CC(=O)N(C)[C@H]3C/C=C\CCN(C3=O)[C@@H](Cc3ccc(C(F)(F)F)cc3)C(=O)N(C)CC(=O)N[C@@H](CCc3cc(F)c(C(F)(F)F)c(F)c3)C(=O)N2C1 [PP1305],13,,"NRAS /KRAS [2, 5]: AA (a compound having 20 or more is denoted as AA); HRAS /KRAS (HRAS wild-type protein; [6]): A (a compound having 10 or more and less than 20 is denoted as A)"
CCCN1C(=O)CN(C)C(=O)CN(C)C(=O)[C@H]([C@@H](C)CC)NC(=O)[C@H](CC(C)C)N(C)C(=O)C[C@@H](C(=O)N2CCOCC2)N(C)C(=O)[C@H](C2CCCC2)N(C)C(=O)C2(CCCC2)NC(=O)CN(CC)C(=O)[C@H](CCc2ccc(C(F)(F)F)c(Cl)c2)NC(=O)CN(C)C(=O)[C@@H]1Cc1ccc(C(F)(F)F)cc1 [PP0144] ([NMeL]I[Sar][Sar][NPrPhe(4-CF3)][Sar][hPhe(3-Cl-4-CF3)][NEtG][Ac5c][NMeGly(cPent)][NMeD]-Morpholide; lactam N-11),18.3,C (A compound having a KD ratio of 0.1 or more and less than 3 is denoted as C),"NRAS /KRAS [2, 9]: B (a compound having 3 or more and less than 10 is denoted as B)"
CCCN1C(=O)CN(C)C(=O)CN(C)C(=O)[C@H]([C@@H](C)CC)NC(=O)[C@H](CC(C)C)N(C)C(=O)C[C@@H](C(=O)N2CCC(C)(C)C2)N(C)C(=O)[C@H](C2CCCC2)N(C)C(=O)C2(CCCC2)NC(=O)[C@@H]2CCCN2C(=O)[C@H](CCc2ccc(C(F)(F)F)c(Cl)c2)NC(=O)CN(C)C(=O)[C@@H]1Cc1ccc(C(F)(F)F)cc1 [PP0177] ([NMeL]I[Sar][Sar][NPrPhe(4-CF3)][Sar][hPhe(3-Cl-4-CF3)]P[Ac5c][NMeGly(cPent)][NMeD]-X11; lactam N-11),34.4,C (A compound having a KD ratio of 0.1 or more and less than 3 is denoted as C),"NRAS /KRAS [2, 9]: B (a compound having 3 or more and less than 10 is denoted as B)"
CCCO[C@@H]1C[C@H]2C(=O)NC3(CC(C)(C)C3)C(=O)N(C)[C@@H](C(CC)CC)C(=O)N(C)[C@H](C(=O)N(C)C)CC(=O)N(C)[C@H]3CCCc4ccc(cc4)C[C@@H](C(=O)N(C)CC(=O)N[C@@H](CCc4ccc(C(F)(F)F)c(OC)c4)C(=O)N2C1)N1CC/C=C\C[C@@H](C1=O)N(C)C(=O)CN(C)C(=O)[C@H]([C@@H](C)CC)NC3=O [PP3063],32.2,B (a compound having 3 or more and less than 10 is denoted as B),"NRAS /KRAS [2, 9]: B (a compound having 3 or more and less than 10 is denoted as B)"
CCCOC[C@H]1C(=O)N[C@@H]([C@@H](C)CC)C(=O)N(C)CC(=O)N(C)[C@H]2C/C=C\CCN(C2=O)[C@@H](Cc2ccc(C(F)(F)F)cc2)C(=O)N(C)CC(=O)N[C@@H](CCc2cc(F)c(C(F)(F)F)c(F)c2)C(=O)N2C[C@H](OCC)C[C@H]2C(=O)NC2(CCC2)C(=O)N(C)[C@@H](C2CCCC2)C(=O)N(C)[C@H](C(=O)N(C)CCC)CC(=O)N1C [PP1668],5.3,,"NRAS /KRAS [2, 7]: A (a compound having 10 or more and less than 20 is denoted as A); HRAS /KRAS (HRAS wild-type protein; [8]): A (a compound having 10 or more and less than 20 is denoted as A)"
CCC[C@H]1C(=O)N[C@@H]([C@@H](C)CC)C(=O)N(C)CC(=O)N(C)[C@H]2C/C=C\CCN(C2=O)[C@@H](Cc2ccc(C(F)(F)F)cc2)C(=O)N(C)CC(=O)N[C@@H](CCc2ccc(C(F)(F)F)c(OC)c2)C(=O)N2C[C@H](OCC)C[C@H]2C(=O)N(C)C2(CCC2)C(=O)N(C)[C@@H](C2CCCC2)C(=O)N(C)[C@H](C(=O)N2CCCCC2)CC(=O)N1C [PP3103],21.5,A (a compound having 10 or more and less than 20 is denoted as A),
CCO[C@@H]1C[C@H]2C(=O)NC3(CCC3)C(=O)N(C)[C@@H](C(CC)CC)C(=O)N3CCC[C@@H]3CC(=O)N(C)[C@@H](CC)C(=O)N[C@@H]([C@@H](C)CC)C(=O)N(C)CC(=O)N(C)[C@H]3C/C=C\CCN(C3=O)[C@@H](Cc3ccc(C(F)(F)F)cc3)C(=O)N(C)CC(=O)N[C@@H](CCc3cc(F)c(C(F)(F)F)c(F)c3)C(=O)N2C1 [PP1607],39.3,,HRAS /KRAS (HRAS wild-type protein; [8]): A (a compound having 10 or more and less than 20 is denoted as A)
CCC[C@H]1C(=O)N[C@@H]([C@@H](C)CC)C(=O)N(C)CC(=O)N(C)[C@H]2C/C=C\CCN(C2=O)[C@@H](Cc2ccc(C)cc2)C(=O)N(C)CC(=O)N[C@@H](CCc2ccc(Cl)c(OC)c2)C(=O)N2C[C@H](OCC)C[C@H]2C(=O)NC2(CC(C)(C)C2)C(=O)N(C)[C@@H](C(CC)CC)C(=O)N(C)[C@H](C(=O)N(C)C)CC(=O)N1C [PP2791],89.8,A (a compound having 10 or more and less than 20 is denoted as A),
CCO[C@@H]1C[C@H]2C(=O)NC3(CC(C)(C)C3)C(=O)N(C)[C@@H](C3CCCC3)C(=O)N(C)[C@H](C(=O)N(C)C)CC(=O)N(C)[C@H]3CCCCCCc4ccc(cc4)C[C@@H](C(=O)N(C)CC(=O)N[C@@H](CCc4ccc(C(F)(F)F)c(OC)c4)C(=O)N2C1)N1CC/C=C\C[C@@H](C1=O)N(C)C(=O)CN(C1CC1)C(=O)[C@H]([C@@H](C)CC)NC3=O [PP3070],1.4,B (a compound having 3 or more and less than 10 is denoted as B),
CCO[C@@H]1C[C@H]2C(=O)NC3(CC(C)(C)C3)C(=O)N(C)[C@@H](C3CCCC3)C(=O)N(C)[C@H](C(=O)N(C)CC)CC(=O)N(C)[C@@H](C3CCC3)C(=O)N[C@@H]([C@@H](C)CC)C(=O)N(C)CC(=O)N(C)[C@H]3C/C=C\CCN(C3=O)[C@@H](Cc3ccc(C(F)(F)F)cc3)C(=O)N(C)CC(=O)N[C@@H](CCc3ccc(C(F)(F)F)c(OC)c3)C(=O)N2C1 [PP1985],17.7,,HRAS /KRAS (HRAS wild-type protein; [4]): B (a compound having 3 or more and less than 10 is denoted as B)
